Experimental data from patent US20200147243A1, “LIGAND COMPOUND OF ALPHA7 NICOTINIC ACETYLCHOLINE RECEPTOR AND APPLICATION THEREOF” (BEIJING NORMAL UNIVERSITY, priority 2017, published 2020).
Several values for one entry are separate records, joined by “and”; a condition that tells them apart may be missing. Identical values can stand only once.

Columns and labels:
[1] = Lipid water partition coefficient (n-octanol / PBS pH 7.4); assay type: physicochemical; conditions: read-out: lipid water partition coefficient log P
[2] = In vitro stability experiment in fetal bovine serum and normal saline; assay type: in vitro ADME
Protocol: The in vitro stability of the radioligand is of great importance for its further in vivo studies. Generally, the in vitro stability study is carried out in normal saline and animal serum. A specific method was as follows: respectively incubating 10 μCi of HPLC-purified radioligand [^18F] II-15 and 100 μL of fetal bovine serum at 37° C. for 1 h and 2 h, adding 200 μL of acetonitrile thereto after finishing the incubation to fully precipitate proteins, then centrifuging at […] for 5 min (7000 rpm), collecting supernatant, filtering the supernatant with filter membrane, and then performing HPLC analysis on 100 μL of the filtered supernatant; incubating 10 μCi of HPLC-purified radioligand [^18F] II-15 with 100 μL of normal saline at room temperature for 1 h and 2 h, respectively, and then directly analyzing by HPLC.

α4β2 nAChR = target: T1, α4β2 nAChR (Mus musculus, UniProt O70174+Q9ERK7); experiment: Selective experiment in mouse brain, cytisine pre-injection; assay type: in vivo, Kunming mice; conditions: 1 mg/kg cytisine s.c. 5 min in advance, 60 min after administration
T1 construct: from tissue
T1 sequence (O70174 31-629): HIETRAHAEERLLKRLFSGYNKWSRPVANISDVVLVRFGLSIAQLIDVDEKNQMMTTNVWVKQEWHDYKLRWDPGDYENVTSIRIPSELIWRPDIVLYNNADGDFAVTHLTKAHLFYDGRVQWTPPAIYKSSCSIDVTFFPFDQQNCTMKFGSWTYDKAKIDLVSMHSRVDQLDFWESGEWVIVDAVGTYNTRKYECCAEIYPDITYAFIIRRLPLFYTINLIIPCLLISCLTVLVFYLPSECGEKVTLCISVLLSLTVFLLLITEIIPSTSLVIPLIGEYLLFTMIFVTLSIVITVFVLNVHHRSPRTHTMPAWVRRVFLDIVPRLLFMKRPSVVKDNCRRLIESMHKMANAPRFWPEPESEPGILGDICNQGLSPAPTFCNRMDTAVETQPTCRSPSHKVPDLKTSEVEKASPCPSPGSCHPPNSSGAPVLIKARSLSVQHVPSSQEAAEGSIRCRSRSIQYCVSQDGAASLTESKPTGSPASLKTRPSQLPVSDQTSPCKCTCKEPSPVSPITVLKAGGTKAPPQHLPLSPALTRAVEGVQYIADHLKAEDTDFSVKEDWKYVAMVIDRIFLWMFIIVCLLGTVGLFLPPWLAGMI
T1 sequence (Q9ERK7 26-501): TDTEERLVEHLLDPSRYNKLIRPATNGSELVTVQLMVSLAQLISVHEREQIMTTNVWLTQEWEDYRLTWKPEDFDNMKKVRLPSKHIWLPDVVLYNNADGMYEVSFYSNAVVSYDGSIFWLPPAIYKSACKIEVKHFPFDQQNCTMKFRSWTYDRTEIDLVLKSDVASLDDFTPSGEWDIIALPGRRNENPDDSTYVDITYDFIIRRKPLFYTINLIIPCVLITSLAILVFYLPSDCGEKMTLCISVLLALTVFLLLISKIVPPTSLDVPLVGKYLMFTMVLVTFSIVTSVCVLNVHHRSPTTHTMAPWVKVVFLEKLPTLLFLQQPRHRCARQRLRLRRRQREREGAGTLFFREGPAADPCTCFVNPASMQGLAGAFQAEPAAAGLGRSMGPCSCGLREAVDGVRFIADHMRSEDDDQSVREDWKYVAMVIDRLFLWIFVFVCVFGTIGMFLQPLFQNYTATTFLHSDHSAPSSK
Protocol: (§1) The selectivity of radioligand for α4β2 nAChR was explored by subcutaneously injecting 1 mg/kg of cytisine (0.1 mL, with an equal volume of normal saline and 1,2-propanediol as solvents) 5 min in advance, whereas the selectivity for the 5-hydroxytryptamine receptor was explored by subcutaneously injecting 2 mg/kg of ondanstron (0.1 mL, with saline:DMSO=5:1 (V:V) as solvents) 10 min in advance. In the experiment, two groups of mice (n=5, Kunming females, 28-30 g) were injected with 0.1 mL (60 μCi) of [^18F]

[3] = target: T2, 5-hydroxytryptamine receptor (Mus musculus, UniProt P23979); experiment: Selective experiment in mouse brain, ondanstron pre-injection; assay type: in vivo, Kunming mice; conditions: 2 mg/kg ondanstron s.c. 10 min in advance, 60 min after administration
T2 construct: from tissue
T2 sequence (P23979 24-489): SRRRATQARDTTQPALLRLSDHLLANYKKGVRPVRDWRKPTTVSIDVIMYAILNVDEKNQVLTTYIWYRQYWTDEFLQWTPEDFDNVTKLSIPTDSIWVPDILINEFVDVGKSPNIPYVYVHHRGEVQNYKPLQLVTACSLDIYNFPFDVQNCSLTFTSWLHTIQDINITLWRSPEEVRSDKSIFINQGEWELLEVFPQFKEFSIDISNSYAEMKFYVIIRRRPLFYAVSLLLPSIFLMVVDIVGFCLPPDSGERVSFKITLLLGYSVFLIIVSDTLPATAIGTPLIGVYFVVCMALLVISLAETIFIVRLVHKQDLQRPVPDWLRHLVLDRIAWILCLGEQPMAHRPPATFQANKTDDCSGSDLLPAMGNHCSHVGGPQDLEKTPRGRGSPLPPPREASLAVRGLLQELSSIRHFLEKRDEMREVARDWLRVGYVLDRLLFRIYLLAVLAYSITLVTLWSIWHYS
Protocol: as §1

[4] = Rat PET imaging (micro-PET/CT); assay type: in vivo; conditions: female CD-1 rats, images at 15, 30, 60 min
Protocol: The radioligand [^18F] II-15 (0.3 mL, 200 μCi) was injected into bodies of female CD-1 rats (180-200 g) in a manner of tail vein injection, then the rats were anesthetized with 3% isoflurane to be coma, and the rats were fixed in a prone posture on a micro-PET/CT imaging instrument (Super Argus PET 4R L/CT 180) for small animals, maintaining the rats in an anesthetic state by employing 1% isoflurane in the scanning imaging process. Image acquisition was carried out respectively 15 min, 30 min and 60 min after the administration, to observe the distribution condition of [^18F] II-15 in the brains of the rats.

[5] = Experiment of brain region distribution; conditions: for Absorption, brain residual / Absorption, cerebellum / Absorption, corpus striatum / Absorption, cortex / Absorption, hippocampus / Absorption, superior and inferior colliculus / Absorption, thalamus: tail vein, female Kunming mice; for Tissue/cerebellum Ratio, corpus striatum / Tissue/cerebellum Ratio, cortex / Tissue/cerebellum Ratio, hippocampus / Tissue/cerebellum Ratio, superior and inferior colliculus / Tissue/cerebellum Ratio, thalamus: mouse brain

Q: With `O=C1c2cc(N3CCN4CCC3CC4)ccc2-c2cccc([18F])c21` [[^18F] II-15] as the compound, how does the logP [1] read?
A: Its logP is 1.64 ± 0.12.

Q: And the “radiochemical purity after incubation” value ([2]; fetal calf serum, 37° C., 1 h)?
A: Its value is “greater than 98%”.

Q: And the “radiochemical purity after incubation” value ([2]; fetal calf serum, 37° C., 2 h)?
A: Its value is “greater than 98%”.

Q: And the “radiochemical purity after incubation” value ([2]; normal saline, room temperature, 1 h)?
A: The value was “greater than 98%”.

Q: And the “radiochemical purity after incubation” value ([2]; normal saline, room temperature, 2 h)?
A: The value was “greater than 98%”.

Q: What about the “difference in brain uptake between experimental group and control group” value (α4β2 nAChR) of the same compound?
A: Its value is “no significant difference”.

Q: And the “difference in brain uptake between experimental group and control group” value [3]?
A: The value was “no significant difference”.

Q: What about the “time of highest brain uptake in PET images” value [4] of the same compound?
A: Its value is 15 min.

Q: And the “Absorption, brain residual” value ([5]; 5 min)?
A: Its value is 6.03 ± 0.23 % ID/g wet weight.

Q: And the “Absorption, brain residual” value ([5]; 15 min)?
A: Its value is 5.58 ± 0.50 % ID/g wet weight.

Q: And the “Absorption, brain residual” value ([5]; 30 min)?
A: Its value is 5.25 ± 0.80 % ID/g wet weight.

Q: And the “Absorption, brain residual” value ([5]; 60 min)?
A: Its value is 4.21 ± 0.22 % ID/g wet weight.

Q: And the “Absorption, brain residual” value ([5]; 90 min)?
A: The value was 2.32 ± 0.26 % ID/g wet weight.

Q: And the “Absorption, cerebellum” value ([5]; 5 min)?
A: Its value is 5.83 ± 0.01 % ID/g wet weight.

Q: What about the “Absorption, cerebellum” value ([5]; 15 min) of the same compound?
A: Its value is 5.10 ± 0.35 % ID/g wet weight.

Q: What about the “Absorption, cerebellum” value ([5]; 30 min) of the same compound?
A: Its value is 4.53 ± 0.14 % ID/g wet weight.

Q: What about the “Absorption, cerebellum” value ([5]; 60 min) of the same compound?
A: Its value is 2.69 ± 0.10 % ID/g wet weight.

Q: What about the “Absorption, cerebellum” value ([5]; 90 min) of the same compound?
A: The value was 1.53 ± 0.10 % ID/g wet weight.

Q: What about the “Tissue/cerebellum Ratio, corpus striatum” value ([5]; 5 min) of the same compound?
A: The value was 1.20.

Q: What about the “Absorption, corpus striatum” value ([5]; 5 min) of the same compound?
A: The value was 6.99 ± 0.31 % ID/g wet weight.

Q: What about the “Tissue/cerebellum Ratio, corpus striatum” value ([5]; 15 min) of the same compound?
A: Its value is 1.28.

Q: And the “Absorption, corpus striatum” value ([5]; 15 min)?
A: The value was 6.55 ± 0.25 % ID/g wet weight.

Q: What about the “Tissue/cerebellum Ratio, corpus striatum” value ([5]; 30 min) of the same compound?
A: Its value is 1.85.

Q: And the “Absorption, corpus striatum” value ([5]; 30 min)?
A: Its value is 8.37±0.27 % ID/g wet weight.

Q: And the “Tissue/cerebellum Ratio, corpus striatum” value ([5]; 60 min)?
A: The value was 1.87.

Q: What about the “Absorption, corpus striatum” value ([5]; 60 min) of the same compound?
A: The value was 5.01 ± 0.31 % ID/g wet weight.

Q: And the “Tissue/cerebellum Ratio, corpus striatum” value ([5]; 90 min)?
A: Its value is 2.9 and 2.86.

Q: What about the “Absorption, corpus striatum” value ([5]; 90 min) of the same compound?
A: The value was 4.37 ± 0.18 % ID/g wet weight.

Q: What about the “Tissue/cerebellum Ratio, cortex” value ([5]; 5 min) of the same compound?
A: The value was 1.24.

Q: And the “Absorption, cortex” value ([5]; 5 min)?
A: The value was 7.24 ± 0.33 % ID/g wet weight.

Q: And the “Tissue/cerebellum Ratio, cortex” value ([5]; 15 min)?
A: The value was 1.63.

Q: And the “Absorption, cortex” value ([5]; 15 min)?
A: Its value is 8.31 ± 0.22 % ID/g wet weight.

Q: And the “Tissue/cerebellum Ratio, cortex” value ([5]; 30 min)?
A: Its value is 2.07.

Q: And the “Absorption, cortex” value ([5]; 30 min)?
A: The value was 9.39±0.24 % ID/g wet weight.

Q: And the “Tissue/cerebellum Ratio, cortex” value ([5]; 60 min)?
A: The value was 2.29.

Q: What about the “Absorption, cortex” value ([5]; 60 min) of the same compound?
A: The value was 6.14 ± 0.34 % ID/g wet weight.

Q: And the “Tissue/cerebellum Ratio, cortex” value ([5]; 90 min)?
A: Its value is 2.5 and 2.47.

Q: What about the “Absorption, cortex” value ([5]; 90 min) of the same compound?
A: Its value is 3.77 ± 0.95 % ID/g wet weight.

Q: And the “Tissue/cerebellum Ratio, hippocampus” value ([5]; 5 min)?
A: The value was 0.99.

Q: And the “Absorption, hippocampus” value ([5]; 5 min)?
A: The value was 5.77 ± 0.17 % ID/g wet weight.

Q: What about the “Tissue/cerebellum Ratio, hippocampus” value ([5]; 15 min) of the same compound?
A: Its value is 1.20.

Q: And the “Absorption, hippocampus” value ([5]; 15 min)?
A: Its value is 6.12 ± 0.40 % ID/g wet weight.

Q: And the “Tissue/cerebellum Ratio, hippocampus” value ([5]; 30 min)?
A: Its value is 1.39.

Q: What about the “Absorption, hippocampus” value ([5]; 30 min) of the same compound?
A: The value was 6.31±0.82 % ID/g wet weight.

Q: What about the “Tissue/cerebellum Ratio, hippocampus” value ([5]; 60 min) of the same compound?
A: Its value is 2.36.

Q: And the “Absorption, hippocampus” value ([5]; 60 min)?
A: Its value is 6.34 ± 0.72 % ID/g wet weight.

Q: What about the “Tissue/cerebellum Ratio, hippocampus” value ([5]; 90 min) of the same compound?
A: Its value is 3.6 and 3.63.

Q: And the “Absorption, hippocampus” value ([5]; 90 min)?
A: The value was 5.54 ± 0.64 % ID/g wet weight.

Q: And the “Tissue/cerebellum Ratio, superior and inferior colliculus” value ([5]; 5 min)?
A: The value was 1.08.

Q: What about the “Absorption, superior and inferior colliculus” value ([5]; 5 min) of the same compound?
A: Its value is 6.32 ± 0.67 % ID/g wet weight.

Q: And the “Tissue/cerebellum Ratio, superior and inferior colliculus” value ([5]; 15 min)?
A: Its value is 1.28.

Q: And the “Absorption, superior and inferior colliculus” value ([5]; 15 min)?
A: The value was 6.53 ± 0.58 % ID/g wet weight.

Q: And the “Tissue/cerebellum Ratio, superior and inferior colliculus” value ([5]; 30 min)?
A: Its value is 1.31.

Q: And the “Absorption, superior and inferior colliculus” value ([5]; 30 min)?
A: Its value is 5.93 ± 0.52 % ID/g wet weight.

Q: And the “Tissue/cerebellum Ratio, superior and inferior colliculus” value ([5]; 60 min)?
A: Its value is 1.45.

Q: What about the “Absorption, superior and inferior colliculus” value ([5]; 60 min) of the same compound?
A: Its value is 3.90 ± 0.36 % ID/g wet weight.

Q: And the “Tissue/cerebellum Ratio, superior and inferior colliculus” value ([5]; 90 min)?
A: The value was 1.86.

Q: What about the “Absorption, superior and inferior colliculus” value ([5]; 90 min) of the same compound?
A: The value was 2.85 ± 0.10 % ID/g wet weight.

Q: And the “Tissue/cerebellum Ratio, thalamus” value ([5]; 5 min)?
A: The value was 0.98.

Q: And the “Absorption, thalamus” value ([5]; 5 min)?
A: The value was 5.74 ± 0.69 % ID/g wet weight.

Q: And the “Tissue/cerebellum Ratio, thalamus” value ([5]; 15 min)?
A: Its value is 1.11.

Q: What about the “Absorption, thalamus” value ([5]; 15 min) of the same compound?
A: Its value is 5.66 ± 0.34 % ID/g wet weight.

Q: And the “Tissue/cerebellum Ratio, thalamus” value ([5]; 30 min)?
A: Its value is 1.28.

Q: What about the “Absorption, thalamus” value ([5]; 30 min) of the same compound?
A: Its value is 5.80 ± 0.47 % ID/g wet weight.

Q: What about the “Tissue/cerebellum Ratio, thalamus” value ([5]; 60 min) of the same compound?
A: The value was 1.82.

Q: And the “Absorption, thalamus” value ([5]; 60 min)?
A: The value was 4.89 ± 0.04 % ID/g wet weight.

Q: What about the “Tissue/cerebellum Ratio, thalamus” value ([5]; 90 min) of the same compound?
A: Its value is 2.10.

Q: What about the “Absorption, thalamus” value ([5]; 90 min) of the same compound?
A: The value was 3.19 ± 0.26 % ID/g wet weight.
